{
  "source": "patent US20240217957A1",
  "about": "“HETEROCYCLIC COMPOUND AND USE THEREOF” (TAKEDA PHARMACEUTICAL COMPANY LIMITED, priority 2022, published 2024)",
  "data": [
    {"biological_target": "T1, human OX2 receptor (Homo sapiens, UniProt O43614)", "T1 construct": "expressed in transfected cells", "T1 sequence (O43614 1-444)": "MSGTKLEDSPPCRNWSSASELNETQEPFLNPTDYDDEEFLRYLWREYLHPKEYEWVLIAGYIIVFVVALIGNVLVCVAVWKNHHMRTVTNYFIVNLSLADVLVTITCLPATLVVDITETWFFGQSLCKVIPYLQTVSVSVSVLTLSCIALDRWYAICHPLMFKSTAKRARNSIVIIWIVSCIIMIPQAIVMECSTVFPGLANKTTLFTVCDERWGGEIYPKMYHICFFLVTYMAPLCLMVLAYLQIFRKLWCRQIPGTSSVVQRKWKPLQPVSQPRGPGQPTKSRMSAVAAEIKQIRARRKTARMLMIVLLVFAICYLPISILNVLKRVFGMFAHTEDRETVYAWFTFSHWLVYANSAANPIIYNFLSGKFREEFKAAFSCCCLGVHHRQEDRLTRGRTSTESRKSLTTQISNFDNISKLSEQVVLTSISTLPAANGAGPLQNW", "experiment": "Measurement of orexin type 2 receptor agonist activity (calcium fluorescence, Fluo-4 AM, FDSS)", "format": "cell-based", "settings": "compound at 3 μM; CHO cells forcibly expressing human OX2 receptor; DMSO = 0%, 10 nM orexin A (human) = 100%", "in_short": "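Agonist response is expressed as % of the fluorescence change given by 10 nM human orexin A, with DMSO as 0%, read over 1 min 40 s on FDSS after compound addition. Cells: stable human OX2 (1-444) CHO-K1 clones, dye-loaded with Fluo-4 AM plus probenecid in HEPES-buffered HBSS with 0.1% BSA.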", "units": {"OX2R agonist activity (3 μM, %)": "%"}, "values": [
      {"smiles": "CS(=O)(=O)N[C@@H]1CN(C2=NOC(c3ccc(F)cc3-c3c(F)cccc3F)C2)CC1(F)F", "note": "(stereo partly drawn) [Example 111, N-{(3R)-4,4-difluoro-1-[5-(2′,5,6′-trifluoro[1,1′-biphenyl]-2-yl)-4,5-dihydro-1,2-oxazol-3-yl]pyrrolidin-3-yl}methanesulfonamide]", "OX2R agonist activity (3 μM, %)": 102},
      {"smiles": "CS(=O)(=O)N[C@@H]1CN(C2=NOC(c3ncc(Cl)cc3-c3c(F)cc(F)cc3F)C2)C[C@@H]1F", "note": "(stereo partly drawn) [Example 112, N-[(3R,4S)-1-{5-[5-chloro-3-(2,4,6-trifluorophenyl)pyridin-2-yl]-4,5-dihydro-1,2-oxazol-3-yl}-4-fluoropyrrolidin-3-yl]methanesulfonamide]", "OX2R agonist activity (3 μM, %)": 98},
      {"smiles": "CS(=O)(=O)N[C@@H]1CN(C2=NOC(CF)(c3ncc(F)cc3-c3c(F)cc(F)cc3F)C2)C[C@@H]1F", "note": "(stereo partly drawn) [Example 113, N-[(3R,4S)-4-fluoro-1-{5-(fluoromethyl)-5-[5-fluoro-3-(2,4,6-trifluorophenyl)pyridin-2-yl]-4,5-dihydro-1,2-oxazol-3-yl}pyrrolidin-3-yl]methanesulfonamide]", "OX2R agonist activity (3 μM, %)": 100},
      {"smiles": "Cc1ccc(C2CC(N3C[C@@H](NS(C)(=O)=O)C(F)(F)C3)=NO2)c(-c2c(F)cccc2F)n1", "note": "(stereo partly drawn) [Example 114, N-[(3R)-1-{5-[2-(2,6-difluorophenyl)-6-methylpyridin-3-yl]-4,5-dihydro-1,2-oxazol-3-yl}-4,4-difluoropyrrolidin-3-yl]methanesulfonamide]", "OX2R agonist activity (3 μM, %)": 87},
      {"smiles": "CCS(=O)(=O)N[C@@H]1CN(C2=NOC(CF)(c3ncc(Cl)cc3-c3c(F)cccc3F)C2)C[C@@H]1F", "note": "(stereo partly drawn) [Example 115, N-[(3R,4S)-1-{5-[5-chloro-3-(2,6-difluorophenyl)pyridin-2-yl]-5-(fluoromethyl)-4,5-dihydro-1,2-oxazol-3-yl}-4-fluoropyrrolidin-3-yl]ethanesulfonamide]", "OX2R agonist activity (3 μM, %)": 100},
      {"smiles": "CS(=O)(=O)N[C@@H]1CN(C2=NOC(CF)(c3ncc(F)cc3-c3c(F)cccc3F)C2)C[C@@H]1F", "note": "(stereo partly drawn) [Example 116, N-[(3R,4S)-1-{5-[3-(2,6-difluorophenyl)-5-fluoropyridin-2-yl]-5-(fluoromethyl)-4,5-dihydro-1,2-oxazol-3-yl}-4-fluoropyrrolidin-3-yl]methanesulfonamide]", "OX2R agonist activity (3 μM, %)": 100},
      {"smiles": "CC1(c2ncc(F)cc2-c2c(F)cccc2F)CC(N2C[C@H](F)[C@H](NS(C)(=O)=O)C2)=NO1", "note": "(stereo partly drawn) [Example 118, N-[(3R,4S)-1-{5-[3-(2,6-difluorophenyl)-5-fluoropyridin-2-yl]-5-methyl-4,5-dihydro-1,2-oxazol-3-yl}-4-fluoropyrrolidin-3-yl]methanesulfonamide]", "OX2R agonist activity (3 μM, %)": 100},
      {"smiles": "CS(=O)(=O)N[C@@H]1CN(C2=NOC(c3ccc(F)cc3-c3c(F)cccc3F)C2)C[C@@H]1F", "note": "(stereo partly drawn) [Example 119, N-{(3R,4S)-4-fluoro-1-[5-(2′,5,6′-trifluoro[1,1′-biphenyl]-2-yl)-4,5-dihydro-1,2-oxazol-3-yl]pyrrolidin-3-yl}methanesulfonamide]", "OX2R agonist activity (3 μM, %)": 101},
      {"smiles": "CN(C)S(=O)(=O)N[C@@H]1CN(C2=NOC(c3ncc(F)cc3-c3c(F)cc(F)cc3F)C2)C[C@@H]1F", "note": "(stereo partly drawn) [Example 120, N′-[(3R,4S)-4-fluoro-1-{5-[5-fluoro-3-(2,4,6-trifluorophenyl)pyridin-2-yl]-4,5-dihydro-1,2-oxazol-3-yl}pyrrolidin-3-yl]-N,N-dimethylsulfuric diamide]", "OX2R agonist activity (3 μM, %)": 102},
      {"smiles": "CN(C)S(=O)(=O)N[C@@H]1CN(C2=NOC(c3ncc(Cl)cc3-c3c(F)cccc3F)C2)C[C@@H]1F", "note": "(stereo partly drawn) [Example 121, N′-[(3R,4S)-1-{5-[5-chloro-3-(2,6-difluorophenyl)pyridin-2-yl]-4,5-dihydro-1,2-oxazol-3-yl}-4-fluoropyrrolidin-3-yl]-N,N-dimethylsulfuric diamide]", "OX2R agonist activity (3 μM, %)": 98}
    ]}
  ]
}
